Patent US9169519B2, “SUMO as a marker of cancer development and target for cancer therapy” (Duke University, priority 2010, dated 2015)

Test system: F98 rat glioblastoma cells
Assay: 3H-thymidine incorporation into DNA (DNA synthesis), with or without radiation
Assay type: cell-based
Details: 100 nM 4-HT versus vehicle, no radiation (FIG. 6B)
Protocol: To investigate whether DNA synthesis of glioblastoma cells is modified by SUMO conjugation, the effects of suppressing SUMO conjugation on the incorporation of ^3H-thymidine into DNA was evaluated. SUMO conjugation was suppressed by blocking its expression using a miRNA approach. To avoid the risk of adaptive processes taking place in cells where SUMO expression had been silenced during the long selection process for stably transfected cells, a 4-hydroxy tamoxifen (4-HT)-inducible lentiviral system was used to express designed miRNAs (Callus et al., Cell Death Diff. 15: 213-219 (2008)). Briefly, the 4-HT inducible lentiviral system utilizes two constructs and the UAS/GAL4 system. […]
The effect of SUMO1/2/3 miRNA expression on radiation induced impairment of DNA synthesis was investigated by measuring the uptake of ^3H-thymidine. […] Irradiated cells were detached with trypsin-EDTA (Fisher Scientific), counted, re-suspended in culture medium with supplements described above, and re-plated in a 96-well plate at a density of 10,000 cells per well. […] Cells were harvested 24 hr later following detachment with trypsin-EDTA, collected on filter paper, dried overnight, and immersed in scintillation cocktail (ICN Biochemicals), and counted for 10 min in a liquid scintillation counter. […]

## 4-hydroxy tamoxifen [4-HT]
  3H-thymidine incorporation into DNA: did not produce any major change
